In paper PMC10418395, “Tetracyclic 1,4-Naphthoquinone Thioglucoside Conjugate U-556 Blocks the Purinergic P2X7 Receptor in Macrophages and Exhibits Anti-Inflammatory Activity In Vivo” (International Journal of Molecular Sciences, 2023):

Tests used:
P2X7 receptor (mP2X7R) [1] = target: T1, P2X7 receptor (mP2X7R) (Mus musculus, UniProt Q9Z1M0); experiment: ATP/BzATP-induced YO-PRO-1 uptake and Ca2+ influx in RAW […] cells; format: cell-based
T1 construct: gene P2rx7
T1 sequence (Q9Z1M0 1-595): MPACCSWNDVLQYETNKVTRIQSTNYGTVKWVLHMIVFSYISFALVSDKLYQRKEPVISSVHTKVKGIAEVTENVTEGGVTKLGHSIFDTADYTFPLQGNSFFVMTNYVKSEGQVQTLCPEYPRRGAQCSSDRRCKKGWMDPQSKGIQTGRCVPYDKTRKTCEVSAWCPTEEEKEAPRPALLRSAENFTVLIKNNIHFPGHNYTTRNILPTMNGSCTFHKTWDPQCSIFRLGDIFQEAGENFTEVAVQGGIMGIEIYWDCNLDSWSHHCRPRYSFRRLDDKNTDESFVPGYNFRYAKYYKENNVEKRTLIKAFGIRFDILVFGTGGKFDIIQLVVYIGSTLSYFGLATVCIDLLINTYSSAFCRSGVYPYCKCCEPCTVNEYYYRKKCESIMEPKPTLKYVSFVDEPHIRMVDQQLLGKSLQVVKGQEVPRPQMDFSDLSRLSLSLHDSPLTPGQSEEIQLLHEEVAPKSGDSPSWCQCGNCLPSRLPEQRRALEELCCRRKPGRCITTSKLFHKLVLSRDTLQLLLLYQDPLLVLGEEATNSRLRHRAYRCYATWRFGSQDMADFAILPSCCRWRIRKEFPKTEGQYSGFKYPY

P2X7 receptor (hP2X7) = target: T2, P2X7 receptor (hP2X7) (Homo sapiens, UniProt Q99572); experiment: SPR (Biacore […], CM5 chip, Langmuir […]); format: binding
T2 construct: gene P2RX7
T2 sequence (Q99572 47-334): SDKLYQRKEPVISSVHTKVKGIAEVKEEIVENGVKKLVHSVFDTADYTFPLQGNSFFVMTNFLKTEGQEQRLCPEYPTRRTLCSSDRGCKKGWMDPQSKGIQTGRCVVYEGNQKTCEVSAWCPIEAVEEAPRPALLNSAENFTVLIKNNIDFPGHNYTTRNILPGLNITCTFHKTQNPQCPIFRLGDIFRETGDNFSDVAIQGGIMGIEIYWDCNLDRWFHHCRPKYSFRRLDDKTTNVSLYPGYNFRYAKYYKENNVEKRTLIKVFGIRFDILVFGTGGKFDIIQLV

P2X7 receptor (mP2X7R) [2] = target: T1, P2X7 receptor (mP2X7R); experiment: BzATP/ATP-induced YO-PRO-1 uptake and Ca2+ influx in RAW […] cells; format: cell-based

| Structure (SMILES) | inhibition at 10 µM (P2X7 receptor (mP2X7R) [1]) [%] | Kd (P2X7 receptor (hP2X7)) [µM] | inhibition at 0.1 µM (P2X7 receptor (mP2X7R) [2]) [%] |
| --- | --- | --- | --- |
| Clc1cccc(-c2nnnn2Cc2cccnc2)c1Cl [A438079] | 48.3 | – | – |
| Cc1c(C)c(O)c2c(c1O)C(=O)C1=C(S[C@@H]3O[C@H](CO)[C@@H](O)[C@H](O)[C@H]3O1)C2=O [compound 4] | – | 13 | 52.7 |
